# Experimental data as given in patent US20090018146A1, “Combination Therapy with Triterpenoid Compounds and Proteasome Inhibitors” (Research Development Corporation, priority 2005, published 2009).
# What was measured:
# [1] = test system: Hsp70; experiment: Western blot of Hsp70 in leukemic/lymphoma cell-lines; format: cell-based, human; settings: Jurkat, U937, MJ-1, and HH cells, 24 hours post-treatment
# Description: Human Jurkat T cell leukemia, monocytic U937 cells, and cutaneous T-cell lymphoma (CTCL) cell lines MJ (G11) and HH were obtained from American Type Culture Collection (Rockville, Md.) and grown in RPMI 1640 medium supplemented with 10% FBS and 2 mM glutamine.
# (§1) Jurkat T cells (2 μg/ml=1 μM), U-937 (4 μg/ml), MJ (5 μg/ml), and HH cells (2.5 μg/ml) were treated for 0-24 hours with the indicated concentrations of avicin D. PBLs from the patients or normal blood were treated with 5 μg/ml of avicin D for 24 hours.
# At the end of treatments, cells were harvested, washed with sterile ice-cold PBS and cytoplasmic extracts (CE) were prepared by lysing the cells in CE buffer containing 10 mM Hepes-Cl pH 7.5, 10 mM KCl, 0.1 mM EDTA, 0.1 mM EGTA, 0.3% NP40, and a protease inhibitor cocktail (Sigma). After centrifugation and separating the supernatant (CE proteins), the pellet was resuspended in a buffer containing 20 mM Hepes-Cl, 400 mM NaCl, 1 mM EDTA, 1 mM EGTA, and protease inhibitor cocktail (Sigma). […]
# (§2) SDS-PAGE and immunoblot procedures were essentially performed as described (Sambrook, 1989). […] Protein bands were detected using the ECL chemiluminescence kit from Amersham as per the manufacturer's protocol.
# (§3) Quantitation of proteins (western) and transcripts (RT-PCR) was performed using the NIH 1.61 image software.
# [2] = test system: E3α ubiquitin ligase; experiment: Western blot of E3α ubiquitin ligase in Jurkat cells; format: cell-based, human; settings: peak at one hour of treatment
# Description: as §1
# (§4) At the end of treatments, cells were harvested, washed with sterile ice-cold PBS and cytoplasmic extracts (CE) were prepared by lysing the cells in CE buffer containing 10 mM Hepes-Cl pH 7.5, 10 mM KCl, 0.1 mM EDTA, 0.1 mM EGTA, 0.3% NP40, and a protease inhibitor cocktail (Sigma). After centrifugation and separating the supernatant (CE proteins), the pellet was resuspended in a buffer containing 20 mM Hepes-Cl, 400 mM NaCl, 1 mM EDTA, 1 mM EGTA, and protease inhibitor cocktail (Sigma). The nuclear protein extraction proceeded for 30 min. on ice followed by centrifugation at 14,000 rpm for 5 min at 4° C. The clear supernatant containing nuclear proteins (NE) was collected, glycerol (10%) was added, and proteins stored at −80° C. until use.
# as §2
# [3] = test system: PBL from a normal blood sample; experiment: Apoptosis in normal PBL; format: cell-based, human
# Description: as §1
# [4] = test system: HSF1; experiment: Western blot of HSF1 in cytoplasmic and nuclear extracts of Jurkat cells; format: cell-based, human
# Description: as §1, §4, §2, §3
# [5] = test system: CHIP; experiment: Western blot of CHIP in Jurkat cells; format: cell-based, human; settings: same conditions as E3α
# Description: as §1, §4, §2
# [6] = test system: Hsp70; experiment: Western blot of Hsp70 in normal PBL; format: cell-based, human; settings: PBL from a normal blood sample, 5 μg/ml, 24 hours
# Description: as §1, §4, §2
# [7] = test system: recombinant Hsp70; experiment: In vitro ubiquitination assay with recombinant Hsp70, his-ub and CE proteins of treated cells; format: biochemical, bovine; settings: cytoplasmic extracts of treated vs untreated Jurkat cells
# Description: Ubiquitination assays were performed as described (Firestein and Feuerstein, 1998) with few modifications using recombinant bovine Hsp70 and N-terminal histidine-tagged ubiquitin (his-ub). About 0.5 μg of Hsp70 and 4 μg of his-ub were incubated in a buffer containing 50 mM Tris-Cl pH 7.5, 2.5 mM MgCl2, 0.05% NP 40, 0.5 mM DTT, 5 mM ATP, 4 μM MG132, and ATP regenerating system containing 10 mM creatine phosphate, 0.1 μg/ml of creatine kinase, and about 50 μg of CE proteins. The reaction was carried out for 1 hour at 30° C. and the products were subjected to nickel agarose chromatographic purification to purify histidine-tagged proteins as per manufacturer's protocol (Qiagen). The affinity-purified proteins were prepared for SDS-PAGE and western analysis using anti-Hsp70 antibodies.
# [8] = test system: Hsp90 transcript; experiment: Northern blot of Hsp90 transcript in Jurkat cells; format: cell-based, human
# Source text: Total RNA from the control and avicin treated Jurkat T cells was made using Trizol (Invitrogen). Equal amounts of RNA were separated on form amide gels and transferred to nylon membranes (Hybond N+, Amersham) and UV cross-linked using UV Stratalinker (Stratagene). Staining the membranes with 0.03% methylene blue solution in 0.3% sodium acetate, pH 5.2, monitored equal loading. The DNA probes for Hsp70 and Hsp90 were purchased from StressGen as pUC plasmids and used according to the manufacturer's protocol. The DNA fragments were radiolabeled using a Nick Translation kit from Gibco BRL and [^32P] dCTP (Amersham). The membranes were exposed for autoradiography after hybridization using ExpressHyb (Clontech) solution at 58° C. for 1 hour and 5 washes, each of 20 minutes, with 5× SSC containing 0.1% SDS at 50° C.
# [9] = biological target: T1, 20S proteasomal activity (Homo sapiens, UniProt Q99436); experiment: 20S proteasomal assay in Jurkat cells; format: cell-based; settings: for decrease in the 20S proteasomal activity: avicin D 1 μM
# T1 construct: Proteasomal extracts (PE) were prepared; endogenous in cells; host or cells: Jurkat T cells (proteasomal extracts)
# T1 sequence (Q99436 44-277): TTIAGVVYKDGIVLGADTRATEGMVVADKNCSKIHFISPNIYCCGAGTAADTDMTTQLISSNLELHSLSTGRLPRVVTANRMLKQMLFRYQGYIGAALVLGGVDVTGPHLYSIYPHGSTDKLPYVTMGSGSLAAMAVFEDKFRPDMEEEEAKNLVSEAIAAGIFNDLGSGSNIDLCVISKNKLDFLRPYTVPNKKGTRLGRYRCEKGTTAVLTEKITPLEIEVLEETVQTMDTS
# Description: Jurkat T cells were treated with 1 μM of avicin D for 0-4 hours. Proteasomal extracts (PE) were prepared as described previously (18) in a buffer containing 50 mM Hepes pH 8, 5 mM EGTA, 0.3% NP40, and 10% glycerol. The assay reaction contained 20 mM Tris-Cl pH7.2, 0.1 mM EDTA, 1 mM β-mercaptoethanol, 5 mM ATP, 20% glycerol, 0.02% SDS, and 0.04% NP40. About 10 μg of the PE proteins and BocLRR-AMC (0.1 mM), which allows measurement of the trypsin-like activity of proteasomes, was used as substrate. The reaction was carried out at 30° C. for 30 minutes and the fluorescence was read at 380 nm (excitation) and 460 nm (emission) in a Perkin Elmer HTS 7000 Plus, Bioassay Reader.
# Statistical significance of differences observed in the proteasomal activity in avicin treated cells compared with the untreated cells was determined by using an unpaired Student t test. The minimum level of significance was a P<0.05.
# [10] = test system: Hsp27; experiment: Western blot of Hsp27 protein in avicin D treated Jurkat cells; format: cell-based, human; settings: avicin D 1 μM, 2-4 hours
# Description: as §1, §4, §2, §3
# [11] = test system: Hsp70; experiment: Western blot of Hsp70 in primary PBL from Sezary syndrome patients; format: cell-based, human; settings: 5 μg/ml, 24 hours
# Description: as §1, §4, §2, §3
smiles,measurement,setting,value
C=C[C@](C)(O)CC/C=C(\CO)C(=O)O[C@H]1[C@H](O)[C@@H](O)[C@H](O[C@@](C)(C=C)CC/C=C(\CO)C(=O)O[C@H]2C[C@]3(C(=O)O[C@@H]4O[C@H](CO)[C@@H](O)[C@H](O)[C@H]4O[C@@H]4O[C@@H](C)[C@H](O[C@@H]5O[C@@H](CO)[C@H](O)[C@H]5O)[C@@H](O[C@@H]5O[C@H](CO)[C@@H](O)[C@H](O)[C@H]5O)[C@H]4O)[C@H](O)C[C@]4(C)C(=CC[C@@H]5[C@@]6(C)CC[C@H](O[C@@H]7O[C@H](CO[C@@H]8O[C@H](C)[C@H](O)[C@H](O)[C@H]8O[C@@H]8OC[C@@H](O)[C@H](O)[C@H]8O)[C@@H](O)[C@H](O)[C@H]7NC(C)=O)C(C)(C)[C@@H]6CC[C@]54C)[C@@H]3CC2(C)C)O[C@@H]1C [avicin D],Hsp70 protein level,[1],significant decrease
same,E3α protein level,[2],dramatic increase
same,apoptosis,[3],resistant to apoptosis
same,increase in the levels of nuclear HSF1,"[4]; 4 hours, nuclear extract, densitometric scanning",~1.5 fold
same,cytoplasmic content of HSF1 protein,[4]; cytoplasmic extract,No apparent change
same,levels of CHIP,[5],No significant change
same,change in Hsp70 protein,[6],no significant change
same,in vitro ubiquitination of Hsp70 (his-ub-Hsp70 ladder),[7],stronger ladder of his-ub-Hsp70
same,increase in Hsp90 transcript (Northern blot),[8],~2 fold
same,decrease in the 20S proteasomal activity,[9]; 2 hours,33%
same,decrease in the 20S proteasomal activity,[9]; 4 hours,41%
same,decrease in proteasome activity,[9]; during 2-4 hours of treatment,30-40%
same,increase of Hsp27,[10],1.4 fold
same,decrease in Hsp70 protein,[11],25-35%
